Reference: patent US20220213070A1, “COMPOUNDS INHIBITING TDG ACTIVITY” (EPITAS BIOSCIENCES (SHANGHAI) CO., LTD., priority 2019, published 2022)

Key:
TDG [1] = target: T1, TDG (Homo sapiens, UniProt Q13569); assay: TDG inhibitory activity of compounds in cells (caC-cmv-firefly luciferase reporter, HEK 293T TDG KO cells transfected with pCDNA4-TDG); format: cell-based; settings: read-out: Inhibition rate on TDG activity
Procedure: Experimental Determination of TDG Inhibitory Activity of Compounds in Cells
The operation steps of this example are as follows:
(1) Preparation of Methylation Reporter Plasmid:
(a) SAM with a stock solution concentration of 32 mM was diluted with ultrapure water to 1600 μM;
(b) The reaction system was prepared according to the following ratio: 30 μl ultrapure water, 5 μl 10×NEBuffer 2, 5 μl diluted SAM, 1 μg pCpGL-CMV-firefly plasmid, 1 μl SssI methylase (4 U/μl); 50 μl in total, the reaction was carried out at 37° C. for 2 hours;
(c) The mixture was heated at 65° C. for 20 minutes. Then 0.2% SDS was added, the reaction was carried out at 80° C. for 10 min; and then 1 μl Proteinase K was added, the reaction was carried out at 50° C. for 1 h;
(d) The methylated plasmid was recovered with Dr. GenTLE® sedimentation aid (TAKARA).
(2) Preparation of 5fC/5caC pCpGL-CMV-Firefly Reporter Plasmid
(a) The following 10× reaction system was prepared:
(b) The reaction system was prepared according to the following ratio:
(c) The reaction was carried out at 37° C. for one hour;
(d) 24 μg Tet1 protein was added for the second time and the reaction was continued for one hour;
(e) SDS was added to a final concentration of 0.5%, 80° C., 10 minutes, then 1 μl Proteinase K was added, 55° C. overnight.
(f) The treated caC-cmv-firefly plasmid was recovered with Dr. GenTLE® sedimentation aid (TAKARA) and was quantified.
(3) Using the Luciferase Activity Assay Method to Detect the Inhibitory Rate of Small Molecule Compounds on Intracellular TDG Enzyme Activity
In a 96-well plate, the reaction system and operation flow of each well were as follows:
(a) 1 ng caC-cmv-firefly, Ing pCpGL-CMV-Relina and 150 ng pCDNA4-TDG or 150 ng pCDNA4-myc plasmid, were diluted to 75 ul Opti-MEM, mixed well and allowed to stand still for 5 minutes;
(b) 2 ul transfection reagent (Hieff Trans™ Liposomal transfection Reagent (0.5 ul/well, YEAEEN, Cat #40802)) was diluted in 100 ul Opti-MEM, mixed well and allowed to stand still for 5 minutes;
(c) 75 ul of (a) and (b) were mixed respectively, and allowed to stand still at room temperature for 20 minutes;
(d) HEK 293T TDG KO cells were digested with trypsin, the cells were collected and counted, and the suspension cell concentration was adjusted to 4×10^5/ml;
(e) 50 ul of the mixture (c) was added to each well, and at the same time 100 ul of the diluted cell suspension was added to the same well, and they were mixed well.
(f) After the cells adhering to the wall, different concentrations of small molecule compounds to be tested were added to each well.
(g) Incubation was performed in a 37° C. CO2 incubator for 72 hours. The supernatant was removed and the cells were quickly freezed at −80° C.
(h) Before detecting the luciferase activity, the cells to be tested were removed from −80° C. and allowed to stand still at room temperature for 30 minutes. Following the instructions of Dual-Glo® Luciferase Reagent (PROMEGA), the firefly fluorescence value and Renilla fluorescence value of each well were detected.
(i) The firefly fluorescence value was divided with the Renilla fluorescence value of each well; 96-well plate Z′ and experimental window was calculated by the ratio of transfected caC-cmv-firefly, pCpGL-CMV-Relina, pCDNA4-TDG plasmid mixture plus DMSO experimental group to transfected caC-cmv-firefly, pCpGL-CMV-Relina, pCDNA4-myc plasmid mixture plus DMSO experimental group, and the relative enzyme activity inhibition rate of each compound was calculated.
According to the biological method described in this example, the selected compounds of the present invention were analyzed, and the results are shown in Table 2. Among them, “+” in Table 2 refers to the compound's TDG inhibitory activity at a concentration of 10 μM≤25%; “++” refers to the compound's TDG inhibitory activity at a concentration of 10 μM>25%.

[2] = tested on: Lung cancer cell line Calu-1; assay: Inhibition of the growth of Calu-1 cells (CellTiter-Glo, 72 hours); format: cell-based; settings: Homo sapiens, 72 hours of culturing, read-out: Inhibitory activity on alu-1 cell growth IC50
Procedure: 14.2 Experimental Determination of Compound's Inhibitory Rate on the Growth of Calu-1 Cells
Lung cancer cell line Calu-1 was cultured in 90% McCoy's 5A medium (BI, 01-075-1ACS)+10% fetal bovine serum (Gibco, 10270106), placed in a CO2 incubator (37° C., 5% CO2, 95% air) for culturing. Calu-1 cells were digested with trypsin (Gibco, 12604-021) and seeded in a 384-well plate at a density of 500 cells per well. The medium was 50 μL and it was cultured overnight at 37° C. in an incubator. On the next day, different concentrations of test compounds were added, and the final concentration of DMSO was 0.1%. After 72 hours of culturing, the cells were taken out for test. The cell culture medium from the 384-well plate to be tested was removed, and fresh culture medium premixed with CTG was immediately added: the ratio of the culture medium to CellTiter-Glo® 2.0 reagent (Promega, G9243) was 2:1, 30 ul was added to each well. The plate was shaken at room temperature for 20 minutes, and then a multi-function plate reader (TECAN, Infinite 200 Pro) was used according to the reagent instructions to determine the cell survival.
According to the biological method described in this example, the selected compounds of the present invention were analyzed, and the results are shown in Table 1. Among them, “++” in Table 1 refers to the inhibitory activity on the growth of calu-1 cells with IC50≤5 μM; “+” refers to the inhibitory activity on the growth of calu-1 cells with IC50>5 μM.

TDG [3] = target: T1, TDG; assay: Inhibition of TDG mismatch repair activity (fluorescent G·U double-stranded DNA probe T1-T2); format: biochemical; settings: TDG 100 nM/L, preincubated with compound 37° C. 30 minutes; probe 30 nM; read-out: Inhibitory activity on TDG mismatch repair IC50
Description: 14.1 Experimental Determination of Compound's Inhibitory Rate on TDG Mismatch Repair Activity
(1) A double-stranded DNA probe T1-T2 containing uracil bases was synthesized. The nucleotide sequence of the T1 chain was: 5′-FAM-TAAUGTGAATGGAGCTGAAAT-biotin-3′; The nucleotide sequence of the T2 chain was 5′-ATTTCAGCTCCATTCACGTTA-3′. Using PCR annealing program, the T1 strand and T2 strand were complementary to form a double-stranded DNA probe T1-T2.
(2) The reaction system and steps for each well of a 96-well plate were as follows: a. TDG (100 nM/L) was mixed with different concentrations of compounds, and the mixture was incubated at 37° C. for 30 minutes. The composition of the reaction buffer was: 20 mM HEPES pH7.5, 100 mM NaCl, 0.2 mM EDTA, 2.5 mM MgCl2; b. The double-stranded DNA probe T1-T2 was added to the mixture to obtain a final volume of 100 μL, with a concentration of 30 nM, and the mixture was incubated at 25° C. for 30 min; c. 1 μL of streptavidin magnetic beads were added to the reaction solution and fully bound the biotin-labeled DNA for 1 hour; d. NaOH was added to the reaction solution to a final concentration of 200 mM, and the mixture was incubated at room temperature for 30 minutes; e. Under the action of a magnetic stand the streptavidin magnetic beads were adsorbed to the tube wall, the supernatant was transferred to a new 96-well plate, and placed in a Tecan microplate reader for fluorescence measurement. The parameter settings were: excitation wavelength 485 nm; emission wavelength 520 nm. A linear curve between fluorescence intensity and TDG concentration was constructed, R^2=0.9968, and the linear range was 0-50 nM/L;
According to the biological method described in this example, the selected compounds of the present invention were analyzed, and the results are shown in Table 1. Among them, “++” in Table 1 refers to the inhibitory activity for TDG mismatch repair with IC50≤5 μM; “+” refers to the inhibitory activity for TDG mismatch repair with IC50>5 μM.

T1 sequence (Q13569 whole entry): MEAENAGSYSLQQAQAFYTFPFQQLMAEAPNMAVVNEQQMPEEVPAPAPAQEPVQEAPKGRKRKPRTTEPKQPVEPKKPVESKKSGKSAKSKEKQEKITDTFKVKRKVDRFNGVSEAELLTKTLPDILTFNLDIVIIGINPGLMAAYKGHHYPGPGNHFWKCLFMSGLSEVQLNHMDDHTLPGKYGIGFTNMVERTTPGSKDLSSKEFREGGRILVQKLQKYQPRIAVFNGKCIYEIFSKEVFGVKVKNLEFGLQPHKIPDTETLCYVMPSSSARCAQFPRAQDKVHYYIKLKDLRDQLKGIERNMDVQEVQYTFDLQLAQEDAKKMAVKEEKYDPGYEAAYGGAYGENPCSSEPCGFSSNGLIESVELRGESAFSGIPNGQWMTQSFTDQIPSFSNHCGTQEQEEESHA

Compound	inhibition at 10 µM (TDG [1]) [%]	IC50 [2] [µM]	IC50 (TDG [3]) [µM]
O=C(CCn1ncc2ccncc21)c1ccc2c(c1)OCCO2 [Compound 25, 1-(2,3-dihydrobenzo[b][1,4]dioxin-6-yl)-3-(1H-pyrazolo[3,4-c]pyridine-1-yl)propan-1-one]	< 25	> 5	> 5
O=C(CCN1CCC(c2ccc(F)cc2O)C1)c1ccc2c(c1)OCCO2 (stereo not drawn) [Compound 51, 1-(2,3-dihydrobenzo[b][1,4]dioxin-6-yl)-3-(3-(4-fluoro-2-hydroxyphenyl)pyrrolidine-1-yl)propan-1-one]	< 25	> 5	> 5
O=C(c1ccc2c(c1)OCCO2)N1Cc2ccccc2C1 [Compound 33, (2,3-dihydrobenzo[b][1,4]dioxin-6-yl)(isoindolin-2-yl)methanone]	< 25	> 5	> 5
O=C(CCN1Cc2ccc(Br)cc2C1)c1ccc2c(c1)OCCO2 [Compound 3, 3-(5-bromoisoindolin-2-yl)-1-(2,3-dihydrobenzo[b][1,4]dioxin-6-yl)propan-1-one]	< 25	> 5	≤ 5
O=C(CCN1CCc2ccccc21)c1ccc2c(c1)OCCO2 [Compound 11, 1-(2,3-dihydrobenzo[b][1,4]dioxin-6-yl)-3-(indoline-1-yl)propan-1-one]	< 25	> 5	> 5
O=C(CCN1CCOc2ccccc21)c1ccc2c(c1)OCCO2 [Compound 15, 3-(2,3-dihydro-4H-benzo[b][1,4]oxazin-4-yl)-1-(2,3-dihydrobenzo[b][1,4]dioxin-6-yl)propan-1-one]	< 25	> 5	> 5
O=C(CCN1C(=O)CSC1=S)c1ccc2c(c1)OCCO2 [Compound 22, 3-(3-(2,3-dihydrobenzo[b][1,4]dioxin-6-yl)-3-oxopropyl)-2-thiothiazolidine-4-one]	< 25	> 5	> 5
c1ccc2c(c1)CN(CCCc1ccc3c(c1)OCCO3)C2 [Compound 29, 2-(3-(2,3-dihydrobenzo[b][1,4]dioxin-6-yl)propyl)isoindoline]	> 25	> 5	> 5
O=C(CCN1Cc2ccccc2C1)c1ccc2c(c1)CCO2 [Compound 34, 1-(2,3-dihydrobenzofuran-5-yl)-3-(isoindolin-2-yl)propan-1-one]	< 25	> 5	> 5
COc1ccc(C(=O)CCN2Cc3ccccc3C2)cc1OC [Compound 38, 1-(3,4-dimethoxyphenyl)-3-(isoindolin-2-yl)propan-1-one]	> 25	> 5	> 5
O=C(CCN1CCC(c2ccc(F)c(O)c2)C1)c1ccc2c(c1)OCCO2 (stereo not drawn) [Compound 52, 1-(2,3-dihydrobenzo[b][1,4]dioxin-6-yl)-3-(3-(4-fluoro-3-hydroxyphenyl)pyrrolidine-1-yl)propan-1-one]	< 25	≤ 5	≤ 5
OC(CCN1Cc2ccccc2C1)c1ccc2c(c1)OCCO2 (stereo not drawn) [Compound 10, 1-(2,3-dihydrobenzo[b][1,4]dioxin-6-yl)-3-(isoindolin-2-yl)propan-1-ol]	< 25	> 5	> 5
O=C(CCN1CCc2ccccc2C(O)(c2ccc(F)cc2)C1)c1ccc2c(c1)OCCO2 (stereo not drawn) [Compound 53, 1-(2,3-dihydrobenzo[b][1,4]dioxin-6-yl)-3-(1-(4-fluorophenyl)-1-hydroxy-1,2,4,5-tetrahydro-3H-benzo[d]azepine-3-yl)propan-1-one]	< 25	≤ 5	≤ 5
N#Cc1ccc2c(c1)CN(CCC(=O)c1ccc3c(c1)OCCO3)C2 [Compound 8]	< 25	> 5	≤ 5
